Tests used:
[1] = target: T1, serum RBP4 (Mus musculus, UniProt Q00724); assay: Serum RBP4 levels (immunoblot) in mice fed high fat diet with fenretinide; type: in vivo; conditions: oral, 0.04% fenretinide in high fat diet, FVB mice
T1 construct: from tissue; host or cells: mouse serum (FVB and AG4KO mice)
Method: Serum or plasma RBP4 was measured by diluting the serum or plasma 20 times in a standard detergent-containing buffer, separated by 15% SDS-PAGE, and transferred to nitrocellulose (Kim, Y. B., et al. Diabetes 48:310-320 (1999)). Mouse RBP4 and human RBP4 were detected using anti-rat or anti-human (DAKO, Germany) polyclonal antisera, respectively, followed by standard ECL detection.
(§1) To determine the effect of RBP4 independently of transgenic manipulation, adult FVB mice were treated with fenretinide (4-hydroxyphenyl retinamide, 4-HPR), a synthetic retinoid originally designed for cancer therapy. […] Three-week old male FVB mice received chow diet, high fat diet or high fat diet supplemented with 0.04% fenretinide. Fenretinide gel capsules were emptied and added directly to the fat soluble vitamin component of the Harlan-Teklad laboratory high fat diet in at the time of diet preparation. Light exposure was minimized during fenretinide high fat diet preparation. Fenretinide high fat diet was stored in the dark at 4° C. and were placed in mouse cages at 2-3 day intervals. […] Thus, both genetic and pharmacological interventions that decrease RBP4 levels improve insulin sensitivity even in obesity.

[2] = system: obese mice on a high fat diet (HFD); assay: Insulin tolerance test (ITT) in mice on high fat diet; type: in vivo, mouse; conditions: HFD with 0.04% fenretinide, 15 weeks of treatment, 1.1 U/kg insulin
Method: (§2) Plasma glucose was measured by glucometer (One Touch Ultra, Lifescan). Insulin (crystal chemical), FFAs (Wako) and adipokines (leptin, adiponectin, and resistin) (LINCO research) were measured using commercially available kits. ITT was performed by i.p. injection of recombinant regular human insulin 3-4 hours after food removal. Different insulin doses were used for different mouse lines and ages as described. GTT was performed by i.p. injection of glucose (1 or 2 g D-glucose per kg body weight) after overnight fasting.
as §1

[3] = system: obese mice on a high fat diet (HFD); assay: Glucose tolerance test (GTT) in mice on high fat diet; type: in vivo, mouse; conditions: HFD with 0.04% fenretinide for 16 weeks, 2 g/kg glucose
Method: as §2, §1

[4] = Food intake, body weight and obesity on high fat diet; type: in vivo, mouse; conditions: 0.04% fenretinide in high fat diet, FVB mice
Method: as §1

[5] = system: ob/ob mice; assay: IPGTT in ob/ob mice treated with fenretinide; type: in vivo, mouse
Method: IPGTT (2 mg/g body weight) was performed on mice (12 weeks old) after 8 weeks of diet/treatment (FIG. 26A). Plasma glucose was measured at the indicated times; the open circles represent ob/+, the closed circles represent ob/ob mice and the open squares represent ob/ob mice treated with fenretinide.
IPGTT (1 mg/g body weight) was performed on mice (42 weeks old). After 38 weeks of diet/treatment (FIG. 26B), plasma glucose was measured at the indicated times; the closed squares are ob/+, the closed circles are ob/+ mice treated with fenretinide; open squares are ob/ob and open circles are ob/ob treated with fenretinide.

[6] = system: ob/ob mice; assay: Long-term mortality of ob/ob mice; type: in vivo, mouse; conditions: 10 months of treatment, compared to untreated controls
Description: The ob/ob mice at 10 months of age were severely obese.

[7] = system: RXR isoforms; conditions: in vitro; cited from earlier work
[8] = target: RBP4 with TTR (Homo sapiens, UniProt P02753); conditions: cited from earlier work

Q: For `CC1=C(/C=C/C(C)=C/C=C/C(C)=C/C(=O)Nc2ccc(O)cc2)C(C)(C)CCC1` [fenretinide, 4-hydroxyphenyl retinamide], which “serum RBP4 levels” value [1] is on record?
A: lowered serum RBP4 levels in obese mice on a high fat diet (HFD) to the level of non-obese control mice on a chow diet

Q: And the “insulin sensitivity (ITT)” value [2]?
A: improved insulin sensitivity

Q: What about the “glucose tolerance (GTT)” value [3] of the same molecule?
A: normalized glucose tolerance

Q: And the body weight [4]?
A: did not affect

Q: What about the “development of obesity on the high fat diet” value [4] of the same molecule?
A: did not affect

Q: What about the food intake [4] of the same molecule?
A: did not affect

Q: What about the “glucose tolerance (IPGTT)” value ([5]; ob/ob mice 12 weeks old, 8 weeks of treatment, 2 mg/g body weight) of the same molecule?
A: greatly improved their glucose tolerance

Q: And the “glucose disposal (IPGTT)” value ([5]; ob/ob mice 42 weeks old, 38 weeks of treatment, 1 mg/g body weight)?
A: improve glucosed disposal to nearly that of heterozygous mice

Q: What about the long term mortality [6] of the same molecule?
A: reduced by almost half

Q: What about the “activation of RXR isoforms” value [7] of the same molecule?
A: does not activate

Q: What about the “interaction of RBP4 with TTR” value [8] of the same molecule?
A: disrupts the interaction of RBP4 with TTR

Reference: patent US8568969B2, “RBP4 in insulin sensitivity/resistance, diabetes, and obesity” (Beth Israel Deaconess Medical Center, Inc., priority 2003, dated 2013)
